Assay results reported in patent US20080139493A1, “Bi- or Tetra-Guanidino-Biphenyl Compounds as Small Molecule Carriers” (priority 2004, published 2008).

B1: Geminin-SMC: conjugate of a compound of formula Ic with the pre-RC assembly repressor protein Geminin (209 aa) (conjugate, UniProt O75496 1-209, looked up)
chain: MNPSMKQKQEEIKENIKNSSVPRRTLKMIQPSASGSLVGRENELSAGLSKRKHRNDHLTSTTSSPGVIVPESSENKNLGGVTQESFDLMIKENPSSQYWKEVAEKRRKALYEALKENEKLHKEIEQKDNEIARLKKENKELAEVAEHVQYMAELIERLNGEPLDNFESLDNQEFDSEEETVEDSLVEDSEIGTCAEGTVSSSTDAKPCI
modifications: full-length conjugated to SMC compound of formula Ic
B2: His6-Geminin: recombinant His6-Geminin, unconjugated form of Geminin (protein, UniProt O75496 1-209, looked up)
Geminin: B1 chain
modifications: His6 tag

Key:
[1] = test system: CD3+ cells from peripheral blood mononuclear cells; assay: Delivery of FITC to primary suspension cells, FACS analysis; format: cell-based; conditions: primary human CD3+ cells, 10 µM, 15 minutes
Description: To determine whether SMCs deliver small molecules to primary human cells, CD3+ cells were isolated by MACS separation from freshly harvested peripheral blood mononuclear cells. This purified cell population was treated with 10 µM of each compound for 15 minutes. Cells were then washed in PBS and analyzed by FACS.

U2OS cells = assay: Delivery of FITC, FACS analysis of live cells; format: cell-based, human; conditions: 10 µM, 15 minutes
Description: The efficiency of delivery of FITC by these guanidine carriers was tested by FACS analysis. U2OS cells were treated with at a concentration of 10 µM with each of the compounds indicated for 15 minutes, and then harvested by trypsinization, and washed in PBS. The live cells were then subjected to FACS analysis.

[2] = test system: Human osteosarcoma cells (U2OS); assay: Uptake and sub-cellular localization by confocal microscopy; format: cell-based; conditions: 10 μM, 10 minutes incubation, no fixation
Description: In order to observe the ability of the di-guanidine and tetra-guanidine compounds to transport small molecules, they were coupled to FITC, which emits light at 514 nm after laser excitation at 492 nm. Human osteosarcoma cells (U2OS) were cultured on glass coverslips and incubated for 10 minutes with each compound to a final concentration of 10 μM. They were compared to FITC conjugated to TAT and FITC alone. After incubation, cells were rinsed in PBS and mounted, without fixation, onto slides and visualized by confocal microscopy. […] Cells were visualized under higher magnification (63×), to assess sub-cellular localization of the FITC.

NIH3T3 fibroblasts [3] = assay: S-phase assay (cellular DNA synthesis, BrdU incorporation); format: cell-based, mouse
Description: (§1) A) NIH3T3 fibroblasts were incubated for one hour with 10 μM recombinant His6-Geminin or 10 μM Geminin-SMC conjugate. Cells were fixed, permeabilised and stained with a polyclonal rabbit anti-Geminin primary, a FITC-conjugated anti-rabbit secondary and counterstained with DAPI. […] B) NIH3T3 fibroblasts were driven into quiescence by density-dependent growth arrest and after 5 days were released back into the cell cycle by subculturing into fresh growth medium. 8 hours after release from quiescence 10 μM of Geminin-SMC was added to the cells. At 21 hours following release cells were pulse-labelled for one hour with 50 μM BrdU. Subsequently cells were fixed, permeabilised and stained with FITC-conjugated anti-BrdU and counterstained with propidium iodide. In a control population 68% of cells were able to re-enter the cell cycle following release whilst in the presence of Geminin-SMC replication dropped by 47% respectively.
Essentially the system is set up as follows: Mouse or human fibroblasts are arrested in quiescence (G0) by contact inhibition.
The quiescent fibroblasts are then subcultured at lower density to release fibroblasts from G0. Re-entry into the DNA synthesis phase (S phase) occurs 21 hours after the release. Pre-replicative complexes (pre-RCs) essential for unwinding of the DNA helix prior to DNA synthesis are assembled at replication origins 16-18 hrs after the release from G0.
One sample of cells is untreated and the other is treated by exposure to an SMC-conjugate according to the present invention. Treatment takes place before pre-RC assembly, preferably at 5-10 hours after release from G0.
The ability of cells to start S phase is monitored with a BrdU pulse at 21 hours. BrdU becomes incorporated into DNA during DNA synthesis and is thus a marker for entry into S phase. BrdU incorporation is then assayed and treated cells are compared with non-treated cells.
For synchronisation in G0, NIH3T3 fibroblasts are seeded at high density and driven into density-dependent growth arrest. […]
DNA synthesis is monitored by pulse labelling cells 21 h after release from G0 for 1 h with 50 μM BrdU. […]
The percentage of cells undergoing DNA replication is determined from images obtained by confocal fluorescence microscopy on a Leica TCS SP confocal microscope. […]
Plasmids expressing […] are microinjected into the nuclei of NIH3T3 fibroblasts at the treatment time 8 hours after release from density-dependent growth arrest in G0. The ability of cells to initiate DNA replication was assessed by pulse labelling cells 19 hours after release from G0 for 1 hour with bromodeoxyuridine (BrdU). Expression of E1̂E4 protein and incorporation of BrdU was monitored by confocal immunofluorescence microscopy. […]

NIH3T3 fibroblasts [4] = assay: Uptake of Geminin-SMC conjugate, anti-Geminin immunofluorescence; format: cell-based, mouse; conditions: 10 μM, one hour
Description: as §1

Row | Molecule | cells fluorescent [1] | cells fluorescent above the background auto-fluorescence (U2OS cells) | sub-cellular localization of the FITC at higher magnification (63×) [2] | drop of replication (BrdU incorporation) (NIH3T3 fibroblasts [3]; 10 μM added 8 hours after release from quiescence, BrdU pulse at 21 hours, control population 68% re-entered cell cycle) | number of cells entering S phase (NIH3T3 fibroblasts [3]; 10 fM to 10 μM, treatment 8 hours after G0 release) | DNA synthesis as monitored by S-phase assay (NIH3T3 fibroblasts [3]; treatment 8 hours after G0 release, BrdU pulse at 21 hours, concentration range per example (10 fM to 30 μM)) | uptake of SMC-conjugate into the cells (NIH3T3 fibroblasts [3]; treatment 8 hours after G0 release, concentration range per example (10 fM to 30 μM)) | FITC staining (anti-Geminin) within the cells (NIH3T3 fibroblasts [4])
1 | N=C(N)NCCOc1c(CNC(=S)Nc2ccc3c(c2)C(=O)OC32c3ccc(O)cc3Oc3cc(O)ccc32)ccc(-c2ccccc2)c1OCCNC(=N)N [di-guanidine-FITC, 2-[2,3-bis(2-guanidino-ethyloxy)-biphenyl-4-ylmethyl]-thioureido-fluorescein] | 88% | 80% | both nuclear and cytoplasmic fluorescence | – | – | – | – | –
2 | N=C(N)NCCOc1cccc(-c2ccc(CNC(=S)Nc3ccc4c(c3)C(=O)OC43c4ccc(O)cc4Oc4cc(O)ccc43)c(OCCNC(=N)N)c2OCCNC(=N)N)c1OCCNC(=N)N [tetra-guanidine-FITC, [2,3,2′,3′-Tetra(2-guanidino-ethyloxy)-biphenyl-4-ylmethyl]-thioureido-fluorescein] | 62% | 80% | intense nuclear fluorescence | – | – | – | – | –
3 | B1 | – | – | – | 47% | dramatic reduction | inhibits DNA synthesis | efficiently taken into the cells | strong FITC staining
4 | B2 | – | – | – | – | – | – | – | no FITC staining
